Laboratory results as given in PMC10186366 (ACS Pharmacology & Translational Science, 2023).

molecular target: T1, human ATIC (AICARFTase) (Homo sapiens, UniProt P31939); test: In vitro AICARFTase (ATIC) enzyme assay (THF formation from 10-CHOTHF); assay type: biochemical; details: monoglutamyl antifolates; mean (standard error), at least three replicate assays; tested up to 200 μM
T1 construct: full-length human ATIC; made in house; host or cells: E. coli Rosetta (DE3)pLysS
Description: We directly tested inhibition potencies by in vitro assays using purified GARFTase and ATIC (AICARFTase) to calculate inhibition dissociation constants (Ki’s) (Table 2).[45]
N-terminal hexahistidine-tagged GARFTase (formyltransferase domain; residues 808–1010) and full-length human ATIC were expressed in Rosetta (DE3)pLysS cells.[45],[48] Cultures (1 L) were grown at 37 °C in LB media with 100 μg/mL ampicillin and 34 μg/mL chloramphenicol until OD600 reached 0.6. Isopropyl β-D-1-thiogalactopyranoside (500 μM) was added, and the cells were incubated at 20 °C for 16–18 h. The cultures were pelleted and resuspended in 40 mL of 25 mM Tris–HCl, pH 7.5, 300 mM NaCl, 5 mM β-mercaptoethanol (β-ME), 10 mM CaCl2, 10 mM MgCl2, 40 mg lysozyme, and 8 U DNAse I (Sigma). The cells were lysed by emulsification.
His-ATIC was purified from the lysate by immobilized metal affinity chromatography with a 4 mL Ni-NTA column (Gold Biotechnology).[45] The column was washed with 5 CV of 25 mM Tris–HCl, pH 7.5, 300 mM NaCl, 10 mM imidazole, and 5 mM β-ME (wash buffer) followed by 5 CV of the wash buffer containing 25 mM imidazole. The protein was eluted with 5 CV of the elution buffer containing components of the wash buffer with 300 mM imidazole. Further purification was by ÄKTA FPLC (GE Healthcare) with a Superdex 200 16/60 (GE Healthcare) column equilibrated with 20 mM Tris–HCl, pH 7.5, 150 mM NaCl, 50 mM KCl, 5 mM EDTA, and 5 mM dithiothreitol (DTT). His-ATIC was stored at 150 μM at 4 °C in this buffer (up to 6 months) or at 100 μM with 20% glycerol at −80 °C for longer-term storage.
GARFTase catalytic activity was measured by monitoring THF formation from 10-CHOTHF.[32],[45],[48] GARFTase assays included 40 μM 10-CHO-THF, 50 nM His-GARFTase, 15 μM α,β-GAR, and a range of inhibitor concentrations in 25 mM Tris–HCl, pH 8.0, 300 mM NaCl, and 5 mM β-ME at 37 °C.[45] AICARFTase catalytic activity was measured by monitoring THF formation from 10-CHOTHF.[54] Reactions included 50 μM 10-CHOTHF, 100 nM His-ATIC, 50 μM ZMP, and inhibitors in 32.6 mM Tris–HCl, pH 7.5, 25 mM KCl, and 5 mM β-ME at 25 ° C.[45] Kinetic measurements were recorded in triplicate in a UV-transparent 96-well plate (Costar 3635) at 298 nm using a BioTek Synergy Neo2 Plate Reader. Initial slopes were graphed against inhibitor concentrations and fit to a three-parameter nonlinear regression to calculate IC50 values for each compound (GraphPad Prism 8.0). […] SHMT2 activity was assayed by monitoring NADH production with a coupled assay including 500 nM His-SHMT2 and 10 μM His-MTHFD2 ([…] molar ratio His-SHMT2/His-MTHFD2). NADH production by His-MTHFD2 was monitored by fluorescence at 470 nm with excitation at 360 nm (Synergy Neo2 Biotek plate reader). Inhibition constants (Ki’s) were calculated from the IC50 values using the equation Ki = IC50/([S]/KM + 1) and the Km and substrate concentration for THF. The THF concentration in the reaction was […]. The calculated Km value for THF with His-SHMT2 was 62.8 μM.

T1 sequence (P31939 whole entry): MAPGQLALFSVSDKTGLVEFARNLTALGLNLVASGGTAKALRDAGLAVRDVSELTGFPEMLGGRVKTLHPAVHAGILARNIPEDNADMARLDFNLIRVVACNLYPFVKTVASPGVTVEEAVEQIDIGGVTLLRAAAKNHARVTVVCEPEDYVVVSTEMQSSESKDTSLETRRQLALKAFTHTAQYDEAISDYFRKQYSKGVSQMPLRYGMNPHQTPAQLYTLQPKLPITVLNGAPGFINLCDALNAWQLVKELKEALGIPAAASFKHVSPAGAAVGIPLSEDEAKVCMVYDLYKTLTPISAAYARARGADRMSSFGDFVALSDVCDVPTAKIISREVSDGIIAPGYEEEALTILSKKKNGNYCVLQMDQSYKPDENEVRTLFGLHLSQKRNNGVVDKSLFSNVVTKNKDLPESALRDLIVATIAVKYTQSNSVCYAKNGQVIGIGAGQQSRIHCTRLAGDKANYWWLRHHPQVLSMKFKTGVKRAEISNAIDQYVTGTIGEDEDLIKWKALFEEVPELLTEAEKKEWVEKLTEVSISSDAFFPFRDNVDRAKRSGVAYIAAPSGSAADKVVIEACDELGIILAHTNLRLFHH

Row | Ki | Compound
1 | > 200 µM | Nc1nc2sc(CCCc3ccc(C(=O)N[C@@H](CCC(=O)O)C(=O)O)cc3)cc2c(=O)[nH]1 [Compound 1]
2 | 18.4 µM | Nc1nc2sc(CCCCc3cccc(C(=O)N[C@@H](CCC(=O)O)C(=O)O)n3)cc2c(=O)[nH]1 [Compound 3, (6-(4-(2-Amino-4-oxo-3,4-dihydrothieno[2,3-d]pyrimidin-6-yl)butyl)picolinoyl)-L-glutamic Acid]
3 | 19.4 µM | Nc1nc2sc(CCCCc3ccc(C(=O)N[C@@H](CCC(=O)O)C(=O)O)c(F)c3)cc2c(=O)[nH]1 [Compound 7, (4-(4-(2-Amino-4-oxo-3,4-dihydrothieno[2,3-d]pyrimidin-6-yl)butyl)-2-fluorobenzoyl)-L-glutamic Acid]

Continued, compound first:

Row | Compound | Ki
4 | Nc1nc2sc(CCCCc3ccc(C(=O)N[C@@H](CCC(=O)O)C(=O)O)nc3)cc2c(=O)[nH]1 [Compound 4, (5-(4-(2-Amino-4-oxo-3,4-dihydrothieno[2,3-d]pyrimidin-6-yl)butyl)picolinoyl)-L-glutamic Acid] | 12.1 µM
5 | Nc1nc2sc(CCCCc3cnc(C(=O)N[C@@H](CCC(=O)O)C(=O)O)c(F)c3)cc2c(=O)[nH]1 [Compound 5, (5-(4-(2-Amino-4-oxo-3,4-dihydrothieno[2,3-d]pyrimidin-6-yl)butyl)-3-fluoropicolinoyl)-L-glutamic Acid] | > 200 µM
6 | Nc1nc2sc(CCCc3ccc(C(=O)N[C@@H](CCC(=O)O)C(=O)O)c(F)c3)cc2c(=O)[nH]1 [Compound 6, (4-(3-(2-Amino-4-oxo-3,4-dihydrothieno[2,3-d]pyrimidin-6-yl)propyl)-2-fluorobenzoyl)-L-glutamic Acid] | 7.3 µM
7 | Nc1nc2sc(CCCc3csc(C(=O)N[C@@H](CCC(=O)O)C(=O)O)c3F)cc2c(=O)[nH]1 [Compound 8, (4-(3-(2-Amino-4-oxo-3,4-dihydrothieno[2,3-d]pyrimidin-6-yl)propyl)-3-fluorothiophene-2-carbonyl)-L-glutamic Acid] | 14.5 µM
8 | Nc1nc2sc(CCCCc3csc(C(=O)N[C@@H](CCC(=O)O)C(=O)O)c3F)cc2c(=O)[nH]1 [Compound 9, (4-(4-(2-Amino-4-oxo-3,4-dihydrothieno[2,3-d]pyrimidin-6-yl)butyl)-3-fluorothiophene-2-carbonyl)-L-glutamic Acid] | 23.7 µM
